Data on 14 molecules can be found in patent US20120291148A1, “TRANSGENIC PLANTS WITH ENHANCED CHARACTERISTICS” (Miami University, priority 2007, published 2012).

Like-named read-outs stand apart in the source and are kept apart here.

One may read the inhibition as the change of the read-out against control, counted positive when it falls.

For data set [1], the target named is T1, AtETHE1 (Arabidopsis thaliana, UniProt Q9C8L4, S50M).
T1 construct: made in house
In words: Inhibition of AtETHE1 p-nitrophenyl acetate hydrolysis by metal chelator. The data set is classed as biochemical. Conditions: presence of metal chelator. The procedure: (§1) Enzymatic assays were conducted at 25° C. in 10 mM MOPS, pH 7.2, on a Cary IE UV-Vis spectrophotometer. A series of thioesters of glutathione were synthesized as previously described (L. Uotila, Meth. Enzymol. 77 (1981) 424-430), and all other substrates were purchased commercially. The hydrolysis of S-D-lactoylglutathione (Sigma), S-D-acetylglutathione, S-D-acetoacetylglutathione, S-D-formylglutathione, S-D-glyocosylgutathione or S-D-pyruvylglutathione was monitored at 240 nm. S-D-mandeloylglutathione hydrolysis was monitored at 263 nm (L. Uotila, Meth. Enzymol. 77 (1981) 424-430). Hydrolysis of p-nitrophenyl phosphate (Sigma), p-nitrophenyl sulfate (Sigma), and p-nitrophenyl acetate (Sigma) was monitored at 400 nm (see R. A. Anderson, et al., Proc. Natl. Acad. Sci. 72 (1975) 2989-2993; J. J. Brandt, et al., Anal. Biochem. 272 (1999) 94-99; J. M. Armstrong, et al., J. Biol. Chem. 241 (1966) 5137-5149). The hydrolysis of L-alanine-p-nitroanilide (Sigma) was measured at 404 nm (J. J. Brandt, et al., Anal. Biochem. 272 (1999) 94-99). Ala-ala-ala-p-nitroanilide (Sigma) and y-L-Glu-p-nitroanalide (Sigma) hydrolysis was monitored at 410 nm. Hydrolysis of benzoylglycyl-L-phenylalanine was monitored at 254 nm (J. F. Sabastian, et al., Can. J. Biochem. 56 (1978) 329-333). […]

The subject of another data set is AtETHE1 expression. As to the kind of experiment: RT-PCR of AtETHE1 mRNA in hydroponic plants under abiotic stress (Example 4). It is filed as in vivo, Arabidopsis Columbia. As to conditions: 10 uM ABA 3 hours; 150 mM NaCl 12 hours (roots); 300 mM Mannitol 24 hours. As to the method:
Stress studies were performed on Wild-type Arabidopsis Columbia grown hydroponically. Seeds were germinated on Rockwool (GrodanHP, Agro Dynamics Inc., East Brunswick, N.J., USA) suspended above Hoagland's solution and grown in a growth chamber maintained at 23° C. and 16 hour light, 8 hour dark cycles. For the plants stressed with abscisic acid (ABA), seedlings were grown hydroponically for 7 days and then stressed for 3 hours with 10 uM ABA. Plants were grown hydroponically for 18 days for stresses with NaCl and Mannitol. Plants were either stressed with 150 mM NaCl for 12 hours or stressed for 24 hours with 300 mM Mannitol. Plant material, roots only for NaCl stress, was immediately ground in liquid N2 and stored in the −80° C. until needed for RNA isolation.
AtETHE1 RNA levels were determined using RT-PCR on total RNA isolated from either whole plants (ABA, Mannitol treated) or from the roots (NaCl treated). […] ACT8 was used as a control.

For data set [2], the system named is AtETHE1 transcript levels. As to the kind of experiment: RT-PCR of AtETHE1 transcript levels under abiotic stress (Example 5). It is filed as in vivo, Arabidopsis Columbia. Conditions: 10 μM ABA 3 hours; 150 mM NaCl or 300 mM Mannitol 24 hours. As to the method:
Stress studies were performed on wild-type Arabidopsis Columbia plants grown hydroponically. Seeds were germinated on Rockwool (GrodanHP, Agro Dynamics Inc., East Brunswick, N.J., USA) suspended above Hoagland's solution (Cowgilland & Milazzo, (1989) The Culturing and Testing of Two Species of Duckweed. In W J Adams, G A Chapman, eds, Aquatic Toxicology and Hazard Assessment Vol 12. American Society for Testing and Materials, Philadelphia, Pa., pp 379-391) and grown in a growth chamber maintained at 23° C. with 16 hour light, 8 hour dark cycles. Plants stressed with abscisic acid (ABA), were grown hydroponically for 7 days and then stressed for 3 hours with 10 μM ABA. Plants were grown hydroponically for 18 days prior to treatment with either 150 mM NaCl or 300 mM Mannitol for 24 hours.
AtETHE1 RNA levels were determined by RT-PCR on total RNA (1 μg) isolated from cotyledon, root, stem, leaf, silique, and bud, and seedlings subjected to abiotic stresses. AtETHE1 cDNA was synthesized using a Thermoscript RT-PCR kit, followed by 25 cycles of PCR using the primer pair 2-3-5′ and 2-3-2. ACT8 was used as a control (An, et al., (1996) Plant J 10: 107-121).

For data set [3], the target named is T1, AtETHE1. In words: Steady-state kinetic test of candidate substrates with AtETHE1. It is filed as biochemical. As to conditions: steady-state kinetic studies after screening hit. As to the method:
as §1

Data set [4] deals with Arabidopsis seedlings (root growth). In words: Seedling growth on MS plates with exogenous metabolites. The data set is classed as in vivo, Arabidopsis thaliana. As to conditions: for sensitivity of AtETHE256-OE plants compared with wild-type plants: 0 mM to 2 mM metabolite on MS plates; for inhibition at 1500 µM: Arabidopsis thaliana, 168 h, 1.5 mM valine, 7 days of growth. As to the method:
Studies in Arabidopsis thaliana Heyhn were performed on the Wassilewskija (WS) ecotype. Seeds were vernalized at 4° C. for 48 hours prior to being placed in a growth chamber. For measurement of toxicity and germination rates, seeds were surfaced sterilized with 70% ethanol for 30 seconds followed by 10% bleach for 30 minutes, rinsed three times with sterile deionized water and plated on half strength Murashige and Skoog (MS) plates solidified with 0.6% Gelrite and supplemented with 1.5% sucrose, pH 6.0. Plates were vernalized for four days at 4° C. and then placed in a controlled growth chamber at 23° C. on a 16:8 light/dark cycle.
Wild-type Arabidopsis (Ws), AtETHE1256-OE, and AtETHE1294-OE seeds were sown onto half-strength MS plates with 0 mM to 2 mM valine, propionate, ethylmalonic acid, butyric acid, or crotonic acid (all purchased from Sigma). Neutralized, filter-sterilized metabolites were added after the medium was autoclaved. Once toxicity levels for wild-type seeds were obtained, wild-type, AtETHE1256-OE, and AtETHE1294-OE seeds were plated together on the same plates. Root lengths and cotyledon growth from 100 plants per stress were measured and compared after 7 days of growth.

Another data set deals with plants. As to the kind of experiment: Preliminary studies of methylmalonate toxicity in plants. The data set is classed as in vivo.
For data set [5] the following is noted: recombinant rat carbonic anhydrase III, G. Kim et al. 2000; cited from earlier work.
The nature of data set [6]: Steady-state hydrolysis of p-nitrophenyl acetate by purified AtETHE1. The data set is classed as biochemical, Arabidopsis thaliana. Conditions: substrate p-nitrophenyl acetate; 25° C., 10 mM MOPS pH 7.2. As to the method: as §1
Data set [7] in a line: Thioesterase activity of AtETHE1 with SLG and other glutathione thioesters. The data set is classed as biochemical, Arabidopsis thaliana. As to the method:
as §1

With `c1cnc2c(c1)ccc1cccnc12` [1,10-o-phenanthroline], the “effect on AtETHE1 activity towards p-nitrophenyl acetate” value on AtETHE1 [1] is given as “inhibited”.
Turning to `CC1=CC(=O)CC(C)(C)[C@@]1(O)/C=C/C(C)=C\C(=O)O` [ABA, abscisic acid], the “fold increase of AtETHE1 expression versus control” value (from here on “fold increase”) in the data set on AtETHE1 expression is 1.8 fold. In addition, the “increase in AtETHE1 transcript levels” value in [2] is on record as “approximately two fold increases”.
Regarding `N[C@@H](CCC(=O)Nc1ccc([N+](=O)[O-])cc1)C(=O)O` [Glu-pNA, y-L-Glu-p-nitroanalide], the “substrate for AtETHE1” value at AtETHE1 [3] was “not to be substrates”.
Consider `[Cl-].[Na+]` [NaCl], for which the “fold increase” value with AtETHE1 expression came to 2.1 fold. Moreover, the “increase in AtETHE1 transcript levels” value in data set [2] was “approximately two fold increases”.
Regarding `CCCC(=O)O` [butyric acid], the “sensitivity of AtETHE256-OE plants compared with wild-type plants” value in data set [4] is given as “same sensitivity”.
On the same count and under the same terms, as for `C/C=C/C(=O)O` [crotonic acid], the entry is “same sensitivity”; as for `CCC(C(=O)O)C(=O)O` [ethylmalonic acid], “same sensitivity”.
Turning to `OC[C@@H](O)[C@@H](O)[C@H](O)[C@H](O)CO` [mannitol], the “fold increase” value in the data set with AtETHE1 expression came to 2.6 fold. Besides, the “increase in AtETHE1 transcript levels” value in [2] is on record as “approximately 2.5 fold”.
With `CC(C(=O)O)C(=O)O` [methylmalonate], the toxicity in plants entry with plants is recorded as “toxic in plants”.
Take `CCC(=O)O` [propionate]: the “sensitivity of AtETHE256-OE plants compared with wild-type plants” value in data set [4] is given as “same sensitivity”.
Consider `CC(C)[C@H](N)C(=O)O` [valine], for which the inhibition at 1500 µM was approximately 40% in data set [4] (AtETHE1256-OE plants, read-out: inhibition of growth) and approximately 80% in data set [4] (wild-type plants, read-out: inhibition of root growth).
On to “Ala-ala-ala-p-nitroanilide [Ala-Ala-Ala-pNA]”, for which the “substrate for AtETHE1” value at AtETHE1 [3] was “not to be substrates”.

B1: rat carbonic anhydrase III: recombinant rat carbonic anhydrase III, literature comparator for esterase activity (protein, UniProt P14141 2-260, looked up)
Carbonic anhydrase 3: AKEWGYASHNGPEHWHELYPIAKGDNQSPIELHTKDIRHDPSLQPWSVSYDPGSAKTILNNGKTCRVVFDDTFDRSMLRGGPLSGPYRLRQFHLHWGSSDDHGSEHTVDGVKYAAELHLVHWNPKYNTFGEALKQPDGIAVVGIFLKIGREKGEFQILLDALDKIKTKGKEAPFNHFDPSCLFPACRDYWTYHGSFTTPPCEECIVWLLLKEPMTVSSDQMAKLRSLFASAENEPPVPLVGNWRPPQPIKGRVVRASFK
With B1, the “esterase activity with p-nitrophenyl acetate” value in data set [5] is recorded as 25.8 nmols/min/mg.

B2: AtETHE1: Arabidopsis thaliana ETHE1 polypeptide, recombinant, purified from E. coli; mononuclear Fe(II) β-lactamase fold protein (protein)
chain: MKLLFRQLFENESSTFTYLLADVSHPDKPALLIDPVDKTVDRDLKLIDELGLKLIYAMNTHVHADHVTGTGLLKTKLPGVKSVISKASGSKADLFLEPGDKVSIGDIYLEVRATPGHTAGCVTYVTGEGADQPQPRMAFTGDAVLIRGCGRTDFQEGSSDQLYESVHSQIFTLPKDTLIYPAHDYKGFEVSTVGEEMQHNPRLTKDKETFKTIMSNLNLSYPKMIDVAVPANMVCGLQDVPSQAN
Turning to B2, the “activity against p-NPA” value in data set [6] is 2.02±0.46 nmols/min/mg of enzyme. For the same molecule, in [7] (Example 5, over-expressed purified AtETHE1), the “enzymatic activity towards SLG” value is listed as “no enzymatic activity”. Besides, in data set [7] (as-isolated and after incubation with excess iron, SLG and other thioester derivatives), the “hydrolysis of glutathione thioesters” value was “did not hydrolyze any of the glutathione thioesters”.
